Tests used:
Assay type in all cases: cell-based
[1] = biological target: Mer (phospho-Mer, MERTK-transfected 293A cells) (Homo sapiens (Human), UniProt Q12866); assay: Mer autophosphorylation ELISA in transient transfected 293A cells (Example H); settings: cellular activity; Mer autophosphorylation ELISA in transient transfected 293A cells
In short: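 IC50 from phospho-Mer ELISA of MERTK-transfected 293A cell lysates after 1 h treatment with serially diluted compound in serum-free medium.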

[2] = biological target: Met (phospho-Met, HGF-stimulated PC-3 prostate cancer cells) (Homo sapiens (Human), UniProt P08581); assay: Met autophosphorylation ELISA in PC-3 cells (Example F); settings: cellular activity; Met autophosphorylation ELISA in PC-3 cells; read-out: c-Met IC50
Chain of Met (phospho-Met, HGF-stimulated PC-3 prostate cancer cells) (P08581 25-1390): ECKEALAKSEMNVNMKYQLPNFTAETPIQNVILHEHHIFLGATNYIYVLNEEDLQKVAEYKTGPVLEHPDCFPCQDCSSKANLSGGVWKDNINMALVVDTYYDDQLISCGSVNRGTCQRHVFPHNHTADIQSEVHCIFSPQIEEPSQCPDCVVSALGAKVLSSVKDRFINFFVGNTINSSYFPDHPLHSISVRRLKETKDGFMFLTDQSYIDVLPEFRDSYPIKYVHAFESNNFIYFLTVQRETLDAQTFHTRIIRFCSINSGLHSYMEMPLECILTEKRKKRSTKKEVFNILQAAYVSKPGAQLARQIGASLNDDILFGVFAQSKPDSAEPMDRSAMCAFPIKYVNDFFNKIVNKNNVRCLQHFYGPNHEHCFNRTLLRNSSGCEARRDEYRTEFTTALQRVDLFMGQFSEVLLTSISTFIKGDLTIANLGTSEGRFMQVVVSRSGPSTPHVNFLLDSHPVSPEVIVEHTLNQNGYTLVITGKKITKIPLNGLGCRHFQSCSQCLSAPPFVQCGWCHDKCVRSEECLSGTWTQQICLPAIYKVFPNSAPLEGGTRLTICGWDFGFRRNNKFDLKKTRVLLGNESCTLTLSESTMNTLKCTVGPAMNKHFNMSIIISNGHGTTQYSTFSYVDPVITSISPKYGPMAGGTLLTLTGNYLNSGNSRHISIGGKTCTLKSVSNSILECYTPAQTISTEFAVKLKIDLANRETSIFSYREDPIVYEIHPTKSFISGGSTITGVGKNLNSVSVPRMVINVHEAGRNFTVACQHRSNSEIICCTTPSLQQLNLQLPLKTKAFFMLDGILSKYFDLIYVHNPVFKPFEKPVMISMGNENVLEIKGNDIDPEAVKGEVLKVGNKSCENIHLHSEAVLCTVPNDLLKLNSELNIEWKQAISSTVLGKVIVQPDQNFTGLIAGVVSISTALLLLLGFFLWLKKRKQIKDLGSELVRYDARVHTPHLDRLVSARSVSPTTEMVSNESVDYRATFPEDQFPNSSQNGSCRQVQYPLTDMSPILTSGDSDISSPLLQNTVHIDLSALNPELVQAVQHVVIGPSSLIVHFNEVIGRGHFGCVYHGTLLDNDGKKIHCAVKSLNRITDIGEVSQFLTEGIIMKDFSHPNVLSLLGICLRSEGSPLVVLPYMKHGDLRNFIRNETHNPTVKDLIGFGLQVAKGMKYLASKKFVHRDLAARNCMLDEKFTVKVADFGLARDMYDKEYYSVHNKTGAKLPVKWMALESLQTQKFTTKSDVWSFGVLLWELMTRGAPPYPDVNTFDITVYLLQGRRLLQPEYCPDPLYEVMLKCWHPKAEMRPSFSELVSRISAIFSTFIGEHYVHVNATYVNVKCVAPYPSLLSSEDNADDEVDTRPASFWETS
In short: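 Compounds were tested on HGF-stimulated PC-3 cells. After 24 h culture and 3 h serum starvation, cells got compound for 1 h and 100 ng/mL HGF for 10 min, and Met tyrosine phosphorylation was measured by ELISA.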

[3] = biological target: KDR (phospho-KDR, VEGF165-stimulated HUVEC cells) (Homo sapiens (Human), UniProt P35968); assay: KDR autophosphorylation ELISA in HUVEC cells (Example G); settings: cellular activity; KDR autophosphorylation ELISA in HUVEC cells
Chain of KDR (phospho-KDR, VEGF165-stimulated HUVEC cells) (P35968 20-1356): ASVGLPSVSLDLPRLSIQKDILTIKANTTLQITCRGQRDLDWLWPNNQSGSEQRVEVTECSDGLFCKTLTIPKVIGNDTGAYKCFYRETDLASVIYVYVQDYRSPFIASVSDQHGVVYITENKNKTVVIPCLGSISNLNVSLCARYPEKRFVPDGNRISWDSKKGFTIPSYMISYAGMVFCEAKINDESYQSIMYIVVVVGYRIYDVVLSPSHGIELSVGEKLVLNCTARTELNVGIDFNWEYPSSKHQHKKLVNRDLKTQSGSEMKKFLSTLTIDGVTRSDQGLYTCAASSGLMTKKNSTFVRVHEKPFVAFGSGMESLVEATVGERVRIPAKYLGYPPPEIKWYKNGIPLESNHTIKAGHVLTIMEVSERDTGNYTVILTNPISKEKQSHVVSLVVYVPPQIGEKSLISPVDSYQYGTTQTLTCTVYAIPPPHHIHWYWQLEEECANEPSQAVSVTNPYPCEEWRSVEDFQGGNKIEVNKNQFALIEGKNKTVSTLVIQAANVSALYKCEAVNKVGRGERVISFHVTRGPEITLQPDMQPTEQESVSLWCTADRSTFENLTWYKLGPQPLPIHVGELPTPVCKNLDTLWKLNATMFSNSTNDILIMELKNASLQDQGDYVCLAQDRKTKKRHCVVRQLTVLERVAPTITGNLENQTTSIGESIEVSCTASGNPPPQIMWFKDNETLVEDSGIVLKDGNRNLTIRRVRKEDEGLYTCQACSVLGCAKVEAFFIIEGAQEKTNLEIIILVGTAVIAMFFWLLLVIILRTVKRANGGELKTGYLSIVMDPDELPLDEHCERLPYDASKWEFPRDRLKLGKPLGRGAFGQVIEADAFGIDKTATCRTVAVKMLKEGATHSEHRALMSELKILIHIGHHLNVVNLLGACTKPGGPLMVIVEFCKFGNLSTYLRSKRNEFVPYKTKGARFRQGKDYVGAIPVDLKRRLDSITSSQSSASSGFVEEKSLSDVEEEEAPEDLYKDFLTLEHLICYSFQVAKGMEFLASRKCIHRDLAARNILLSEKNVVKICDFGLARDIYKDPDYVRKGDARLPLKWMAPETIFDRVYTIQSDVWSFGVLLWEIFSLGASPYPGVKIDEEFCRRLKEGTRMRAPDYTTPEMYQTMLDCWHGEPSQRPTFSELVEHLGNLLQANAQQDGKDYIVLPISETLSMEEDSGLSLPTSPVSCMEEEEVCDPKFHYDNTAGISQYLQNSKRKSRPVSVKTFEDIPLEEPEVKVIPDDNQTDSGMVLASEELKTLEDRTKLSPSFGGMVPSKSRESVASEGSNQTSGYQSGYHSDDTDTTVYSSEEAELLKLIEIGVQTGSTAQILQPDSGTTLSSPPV
In short: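 Read-out is phospho-KDR measured by ELISA in lysates of VEGF165-stimulated (100 ng/mL, 5 min) HUVEC that were serum-starved 24 h and then pre-exposed 1 h to compound across 8 doses in 0.3% DMSO. Unstimulated lysates defined 0% and stimulated vehicle lysates 100% activity; IC50 values come from 4-parameter logistic regression.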

[4] = biological target: AXL (phospho-AXL, Gas6-stimulated A-172 glioblastoma cells) (Homo sapiens (Human), UniProt P30530); assay: AXL autophosphorylation ELISA in A-172 cells (Example E); settings: cellular activity; AXL autophosphorylation ELISA in A-172 cells; read-out: Axl IC50
Chain of AXL (phospho-AXL, Gas6-stimulated A-172 glioblastoma cells) (P30530 26-894): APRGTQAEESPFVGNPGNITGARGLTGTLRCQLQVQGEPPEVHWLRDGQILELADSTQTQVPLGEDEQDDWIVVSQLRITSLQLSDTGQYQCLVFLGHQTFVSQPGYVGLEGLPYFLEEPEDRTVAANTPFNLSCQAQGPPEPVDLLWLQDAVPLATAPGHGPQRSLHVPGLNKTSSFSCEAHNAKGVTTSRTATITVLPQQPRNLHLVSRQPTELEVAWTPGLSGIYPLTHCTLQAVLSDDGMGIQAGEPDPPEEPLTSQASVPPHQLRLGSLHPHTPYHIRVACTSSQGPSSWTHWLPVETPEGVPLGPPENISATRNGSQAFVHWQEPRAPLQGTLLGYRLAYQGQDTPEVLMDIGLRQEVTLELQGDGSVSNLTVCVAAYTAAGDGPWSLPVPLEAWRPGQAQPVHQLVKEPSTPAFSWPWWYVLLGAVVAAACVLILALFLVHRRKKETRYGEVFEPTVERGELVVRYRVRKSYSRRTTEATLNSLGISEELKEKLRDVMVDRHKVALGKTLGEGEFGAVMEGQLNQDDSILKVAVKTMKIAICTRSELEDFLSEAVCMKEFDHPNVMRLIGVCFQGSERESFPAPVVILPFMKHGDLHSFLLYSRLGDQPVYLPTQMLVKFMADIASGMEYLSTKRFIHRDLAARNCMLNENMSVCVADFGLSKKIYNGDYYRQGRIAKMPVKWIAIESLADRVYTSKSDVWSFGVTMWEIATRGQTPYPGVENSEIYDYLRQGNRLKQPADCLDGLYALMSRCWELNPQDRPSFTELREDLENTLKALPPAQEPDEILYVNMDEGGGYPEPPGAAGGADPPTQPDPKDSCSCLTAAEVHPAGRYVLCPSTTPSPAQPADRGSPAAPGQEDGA
In short: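 Phospho-AXL was measured by ELISA in lysates of Gas6-stimulated A-172 cells, starved 24 h in serum-free medium and exposed 1 h to an 8-point compound dilution at 0.3% DMSO.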

Chain of Mer (phospho-Mer, MERTK-transfected 293A cells) (Q12866 21-999): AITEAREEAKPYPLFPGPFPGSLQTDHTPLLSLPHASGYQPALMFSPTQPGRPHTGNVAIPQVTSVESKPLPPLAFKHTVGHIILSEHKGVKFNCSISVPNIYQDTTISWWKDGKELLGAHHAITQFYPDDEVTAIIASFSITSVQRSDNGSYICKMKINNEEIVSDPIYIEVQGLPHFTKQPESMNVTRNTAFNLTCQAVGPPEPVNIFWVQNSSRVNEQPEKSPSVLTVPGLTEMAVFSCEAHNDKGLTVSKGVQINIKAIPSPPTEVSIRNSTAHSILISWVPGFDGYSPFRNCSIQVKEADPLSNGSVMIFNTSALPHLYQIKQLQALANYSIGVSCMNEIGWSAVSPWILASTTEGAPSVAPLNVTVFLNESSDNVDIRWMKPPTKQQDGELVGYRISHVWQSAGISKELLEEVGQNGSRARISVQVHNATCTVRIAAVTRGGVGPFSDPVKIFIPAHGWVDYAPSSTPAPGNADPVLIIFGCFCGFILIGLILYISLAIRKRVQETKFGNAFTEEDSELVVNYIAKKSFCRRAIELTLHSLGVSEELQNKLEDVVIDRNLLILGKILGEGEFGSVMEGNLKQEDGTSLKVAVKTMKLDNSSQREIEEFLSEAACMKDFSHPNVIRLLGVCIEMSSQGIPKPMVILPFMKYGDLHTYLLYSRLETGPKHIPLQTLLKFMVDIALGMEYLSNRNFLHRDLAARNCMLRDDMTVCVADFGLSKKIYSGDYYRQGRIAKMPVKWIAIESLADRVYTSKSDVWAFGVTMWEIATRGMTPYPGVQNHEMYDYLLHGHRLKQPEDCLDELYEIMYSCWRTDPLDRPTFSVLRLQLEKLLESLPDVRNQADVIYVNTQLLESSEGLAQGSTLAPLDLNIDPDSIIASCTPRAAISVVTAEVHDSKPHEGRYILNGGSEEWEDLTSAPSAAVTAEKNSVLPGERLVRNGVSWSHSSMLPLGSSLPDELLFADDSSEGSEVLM

| IC50 [1] | IC50 [2] | IC50 [3] | IC50 [4] | SMILES |
| --- | --- | --- | --- | --- |
| < 100 nM | < 100 nM | < 100 nM | < 100 nM | COCCOc1cc2nccc(Oc3ccc(NC(=O)c4c(C)ccn(-c5ccc(F)cc5)c4=O)cc3)c2nc1OC [Compound 704, 1-(4-fluorophenyl)-N-[4-[[6-methoxy-7-(2-methoxyethoxy)-1,5-naphthyridin-4-yl]oxy]phenyl]-4-methyl-2-oxopyridine-3-carboxamide] |
| < 100 nM | < 100 nM | 100 to 300 nM | < 100 nM | COc1cc2nccc(Oc3ccc(NC(=O)c4nn(C(F)F)c(C)c(-c5ccc(F)cc5)c4=O)cc3F)c2nc1OC [Compound 721, 1-(difluoromethyl)-N-[4-[(6,7-dimethoxy-1,5-naphthyridin-4-yl)oxy]-3-fluorophenyl]-5-(4-fluorophenyl)-6-methyl-4-oxopyridazine-3-carboxamide] |
| < 100 nM | < 100 nM | > 300 nM | < 100 nM | COc1cc2nccc(Oc3ccc(NC(=O)c4cn(CC(F)F)c(C)c(-c5ccc(F)cc5C)c4=O)cc3)c2nc1OC [Compound 722, 1-(2,2-difluoroethyl)-N-[4-[(6,7-dimethoxy-1,5-naphthyridin-4-yl)oxy]phenyl]-5-(4-fluoro-2-methylphenyl)-6-methyl-4-oxopyridine-3-carboxamide] |
| < 100 nM | < 100 nM | > 300 nM | < 100 nM | COc1cnc2c(Oc3ccc(NC(=O)c4cn(CC(F)F)c(C)c(-c5ccc(F)cc5C)c4=O)cc3F)ccnc2c1 [Compound 723, 1-(2,2-difluoroethyl)-N-[3-fluoro-4-[(7-methoxy-1,5-naphthyridin-4-yl)oxy]phenyl]-5-(4-fluoro-2-methylphenyl)-6-methyl-4-oxopyridine-3-carboxamide] |
| < 100 nM | < 100 nM | < 100 nM | < 100 nM | COCCOc1cnc2c(Oc3ccc(NC(=O)c4c(C)nc(C)c(-c5ccc(F)cc5C)c4O)cc3)ccnc2c1 [Compound 724, 5-(4-fluoro-2-methylphenyl)-4-hydroxy-N-[4-[[7-(2-methoxyethoxy)-1,5-naphthyridin-4-yl]oxy]phenyl]-2,6-dimethylpyridine-3-carboxamide] |
| < 100 nM | < 100 nM | < 100 nM | < 100 nM | COCCOc1cc2nccc(Oc3ccc(NC(=O)c4c(C)nc(C)c(-c5ccc(F)cc5C)c4O)cc3)c2nc1OC [Compound 725, 5-(4-fluoro-2-methylphenyl)-4-hydroxy-N-[4-[[6-methoxy-7-(2-methoxyethoxy)-1,5-naphthyridin-4-yl]oxy]phenyl]-2,6-dimethylpyridine-3-carboxamide] |
| < 100 nM | < 100 nM | < 100 nM | < 100 nM | CNC(=O)c1cc2nccc(Oc3cc(F)c(NC(=O)c4ccc(C)n(-c5ccc(F)cc5)c4=O)cc3F)c2cc1C [Compound 726, 4-[2,5-difluoro-4-[[1-(4-fluorophenyl)-6-methyl-2-oxopyridine-3-carbonyl]amino]phenoxy]-N,6-dimethylquinoline-7-carboxamide] |
| < 100 nM | < 100 nM | 100 to 300 nM | < 100 nM | COc1cc2nccc(Oc3ccc(NC(=O)c4cn(C)c(C5CC5)c(-c5ccc(F)cc5)c4=O)cc3F)c2nc1OC [Compound 728, 6-cyclopropyl-N-[4-[(6,7-dimethoxy-1,5-naphthyridin-4-yl)oxy]-3-fluorophenyl]-5-(4-fluorophenyl)-1-methyl-4-oxopyridine-3-carboxamide] |
| < 100 nM | < 100 nM | 100 to 300 nM | < 100 nM | COc1cc2nccc(Oc3ccc(NC(=O)c4cn(CC(F)F)c(C)c(-c5ccc(F)cc5C)c4=O)cc3F)c2nc1OC [Compound 730, 1-(2,2-difluoroethyl)-N-[4-[(6,7-dimethoxy-1,5-naphthyridin-4-yl)oxy]-3-fluorophenyl]-5-(4-fluoro-2-methylphenyl)-6-methyl-4-oxopyridine-3-carboxamide] |
| < 100 nM | < 100 nM | > 300 nM | < 100 nM | COc1cnc2c(Oc3ccc(NC(=O)c4cn(CC(F)F)c(C)c(-c5ccc(F)cc5C)c4=O)cc3)ccnc2c1 [Compound 731, 1-(2,2-difluoroethyl)-5-(4-fluoro-2-methylphenyl)-N-[4-[(7-methoxy-1,5-naphthyridin-4-yl)oxy]phenyl]-6-methyl-4-oxopyridine-3-carboxamide] |
| < 100 nM | < 100 nM | > 300 nM | < 100 nM | COc1cc2nccc(Oc3ccc(NC(=O)c4c(C)c(C)nn(-c5ccc(F)cc5)c4=O)cc3)c2nc1OC [Compound 732, N-[4-[(6,7-dimethoxy-1,5-naphthyridin-4-yl)oxy]phenyl]-2-(4-fluorophenyl)-5,6-dimethyl-3-oxopyridazine-4-carboxamide] |
| < 100 nM | < 100 nM | > 300 nM | > 300 nM | COc1cnc2c(Oc3ccc(NC(=O)c4c(C)c(C)nn(-c5ccc(F)cc5)c4=O)cc3)ccnc2c1 [Compound 733, 2-(4-fluorophenyl)-N-[4-[(7-methoxy-1,5-naphthyridin-4-yl)oxy]phenyl]-5,6-dimethyl-3-oxopyridazine-4-carboxamide] |
| < 100 nM | < 100 nM | > 300 nM | 100 to 300 nM | COc1cnc2c(Oc3ccc(NC(=O)c4c(C)c(C)nn(-c5ccc(F)cc5)c4=O)cc3F)ccnc2c1 [Compound 734, N-[3-fluoro-4-[(7-methoxy-1,5-naphthyridin-4-yl)oxy]phenyl]-2-(4-fluorophenyl)-5,6-dimethyl-3-oxopyridazine-4-carboxamide] |
| < 100 nM | < 100 nM | < 100 nM | < 100 nM | COc1cc2nccc(Oc3ccc(NC(=O)c4c(C)nc(C)c(-c5ccc(F)cc5C)c4O)cc3)c2nc1Cl [Compound 735, N-[4-[(6-chloro-7-methoxy-1,5-naphthyridin-4-yl)oxy]phenyl]-5-(4-fluoro-2-methylphenyl)-4-hydroxy-2,6-dimethylpyridine-3-carboxamide] |
| < 100 nM | < 100 nM | < 100 nM | < 100 nM | COc1cc2nccc(Oc3ccc(NC(=O)c4c(C)nc(C)c(-c5ccc(F)cc5C)c4O)cc3F)c2nc1Cl [Compound 736, N-[4-[(6-chloro-7-methoxy-1,5-naphthyridin-4-yl)oxy]-3-fluorophenyl]-5-(4-fluoro-2-methylphenyl)-4-hydroxy-2,6-dimethylpyridine-3-carboxamide] |
| < 100 nM | < 100 nM | < 100 nM | < 100 nM | COc1cc2nccc(Oc3cc(F)c(NC(=O)c4c(C)nc(C)c(-c5ccc(F)cc5C)c4O)cc3F)c2nc1Cl [Compound 737, N-[4-[(6-chloro-7-methoxy-1,5-naphthyridin-4-yl)oxy]-2,5-difluorophenyl]-5-(4-fluoro-2-methylphenyl)-4-hydroxy-2,6-dimethylpyridine-3-carboxamide] |
| < 100 nM | < 100 nM | < 100 nM | < 100 nM | COc1cc2nccc(Oc3ccc(NC(=O)c4c(C)[nH]nc(-c5ccc(F)cc5C)c4=O)cc3F)c2nc1OC [Compound 738, N-[4-[(6,7-dimethoxy-1,5-naphthyridin-4-yl)oxy]-3-fluorophenyl]-3-(4-fluoro-2-methylphenyl)-6-methyl-4-oxo-1H-pyridazine-5-carboxamide] |
| < 100 nM | < 100 nM | > 300 nM | < 100 nM | COc1cc2nccc(Oc3ccc(NC(=O)c4c(C)c(C(C)=O)cn(-c5ccc(F)cc5C)c4=O)cc3F)c2nc1OC [Compound 739, 5-acetyl-N-[4-[(6,7-dimethoxy-1,5-naphthyridin-4-yl)oxy]-3-fluorophenyl]-1-(4-fluoro-2-methylphenyl)-4-methyl-2-oxopyridine-3-carboxamide] |
| < 100 nM | < 100 nM | < 100 nM | < 100 nM | C=Cc1c(C)c(C(=O)Nc2ccc(Oc3ccnc4cc(OCCOC)c(OC)nc34)c(F)c2)c(=O)n(-c2ccc(F)cc2)c1C [Compound 740, 5-ethenyl-N-[3-fluoro-4-[[6-methoxy-7-(2-methoxyethoxy)-1,5-naphthyridin-4-yl]oxy]phenyl]-1-(4-fluorophenyl)-4,6-dimethyl-2-oxopyridine-3-carboxamide] |
| < 100 nM | < 100 nM | 100 to 300 nM | < 100 nM | C=Cc1c(C)c(C(=O)Nc2ccc(Oc3ccnc4cc(OCCOC)c(OC)nc34)cc2)c(=O)n(-c2ccc(F)cc2)c1C [Compound 741, 5-ethenyl-1-(4-fluorophenyl)-N-[4-[[6-methoxy-7-(2-methoxyethoxy)-1,5-naphthyridin-4-yl]oxy]phenyl]-4,6-dimethyl-2-oxopyridine-3-carboxamide] |
